Assays:
Assay type in all cases: in vivo
[1] = system: barley (HORBW, Hordeum vulgare); assay: Test H post-emergence, alone and in combination: barley
Excerpt: (§1) Seeds of plant species selected from wheat (TRZAW, Triticum aestivum), barley (HORBW, Hordeum vulgare), Kochia (KCHSC, Kochia caoparia) blackgrass (ALOMY, Alopecurus myosuroides), canarygrass (PHAMI, Phalaris minor), Italian ryegrass (LOLMU, Lolium multiflorum) common lambsquarter (CHEAL, Chenopodium album), pigweed (AMARE, Amaranthus retroflexus), Common Chickweed (STEME, Stellaria media), Russian thistle (SASKR, Salsola iberica), Wild Buckwheat (POLCO, Polygonum convolvulus), Catchweed Bedstraw (GALAP, Galium aparine), Mustard (SINAR, Sinapisar arvensis), Henbit Deadnettle (LAMAM, Lamium amplexicaule), Wild Radish (RAPRA, Raphanus raphanistrum), Field Poppy (PAPRH, Papaver rhoeas), Field Violet (VIOAR, Viola arvennsis), Scentless Chamomile (MATIN Matricaria inodora) were planted into soil and treated post-emergence with test chemicals formulated in a non-phytotoxic solvent mixture. Plants were grown in a greenhouse using supplemental lighting to maintain a photoperiod of approximately 14 hours; daytime and nighttime temperatures were approximately 23°-29° and 16°-19° Celsius, respectively. Balanced fertilizer was applied through the watering system. Treated plants and controls were maintained in a greenhouse for 20 days, after which time all species were compared to controls and visually evaluated. Plant response ratings were calculated as the mean of three replicates (unless otherwise indicated), are summarized in Table G, and are based on a scale of 0 to 100 where 0 is no effect and 100 is complete control. A dash (-) response means no test result.

[2] = system: blackgrass (ALOMY, Alopecurus myosuroides); assay: Test H post-emergence, alone and in combination: blackgrass
Excerpt: as §1

[3] = system: canarygrass (PHAMI, Phalaris minor); assay: Test H post-emergence, alone and in combination: canarygrass
Excerpt: as §1

[4] = system: Italian ryegrass (LOLMU, Lolium multiflorum); assay: Test H post-emergence, alone and in combination: Italian ryegrass
Excerpt: as §1

[5] = system: common lambsquarter (CHEAL, Chenopodium album); assay: Test H post-emergence, alone and in combination: common lambsquarter
Excerpt: as §1

[6] = system: pigweed (AMARE, Amaranthus retroflexus); assay: Test H post-emergence, alone and in combination: pigweed
Excerpt: as §1

[7] = system: Common Chickweed (STEME, Stellaria media); assay: Test H post-emergence, alone and in combination: Common Chickweed
Excerpt: as §1

[8] = system: Wild Buckwheat (POLCO, Polygonum convolvulus); assay: Test H post-emergence, alone and in combination: Wild Buckwheat
Excerpt: as §1

[9] = system: Henbit Deadnettle (LAMAM, Lamium amplexicaule); assay: Test H post-emergence, alone and in combination: Henbit Deadnettle
Excerpt: as §1

[10] = system: Wild Radish (RAPRA, Raphanus raphanistrum); assay: Test H post-emergence, alone and in combination: Wild Radish
Excerpt: as §1

[11] = system: Scentless Chamomile (MATIN Matricaria inodora); assay: Test H post-emergence, alone and in combination: Scentless Chamomile
Excerpt: as §1

[12] = system: beggarticks (hairy beggarticks, Bidens pilosa); assay: Test E pre-/postemergence: beggarticks; settings: Postemergence, scale 0 to 100
Excerpt: Seeds of plant species selected from corn (Zea mays), soybean (Glycine max), velvetleaf (Abutilon theophrasti), lambsquarters (Chenopodium album), poinsettia, wild (wild poinsettia, Euphorbia heterophylla), pigweed, palmer (palmer pigweed, Amaranthus palmeri), waterhemp (common waterhemp, Amaranthus rudis), smartweed (ladysthumb smartweed, Polygonum persicaria), surinam grass (Brachiaria decumbens), crabgrass, large (large crabgrass, Digitaria sanguinalis), crabgrass, Brazil (Brazilian crabgrass, Digitaria horizontalis), panicum, fall (fall panicum, Panicum dichotomiflorum), foxtail, giant (giant foxtail, Setaria faberii), foxtail, green (green foxtail, Setaria viridis), goosegrass (Eleusine indica), johnsongrass (Sorghum halepense), ragweed (common ragweed, Ambrosia elation), barnyardgrass (Echinochloa crus-galli), sandbur (southern sandbur, Cenchrus echinatus), arrowleaf sida (Sida rhombifolia), ryegrass, Italian (Italian ryegrass, Lolium multiflorum), dayflower, (VA) (Virginia dayflower, Commelina virginica), field bindweed (Convolvulus arvensis), cocklebur (common cocklebur, Xanthium strumarium), morningglory (Ipomoea coccinea), nightshade (eastern black nightshade, Solanum ptycanthum), kochia (Kochia scoparia), nutsedge, yellow (yellow nutsedge, Cyperus esculentus) and beggarticks (hairy beggarticks, Bidens pilosa) were planted into a silt loam soil and treated preemergence with test chemicals formulated in a non-phytotoxic solvent mixture which included a surfactant. At the same time, plants selected from these crop and weed species were planted in pots containing a growing medium comprising spaghnum peat moss, vermiculite, wetting agent and starter nutrients and treated with postemergence applications of some of the test chemicals formulated in the same manner. Plants ranged in height from 2 to 18 cm for postemergence treatments (1- to 4-leaf stage).
Treated plants and controls were maintained in a greenhouse for 14 to 21 days, after which time all species were compared to controls and visually evaluated. Plant response ratings, summarized in Table E, are based on a scale of 0 to 100 where 0 is no effect and 100 is complete control. A dash (-) response means no test result.

Cc1nn(-c2ccc(F)cc2)nc1Oc1ccnc(C(F)(F)F)c1 [Compound 129, 4-[[2-(4-fluorophenyl)-5-methyl-2H-1,2,3-triazol-4-yl]oxy]-2-(trifluoromethyl)pyridine]
HORBW plant response ([1]; Rate 31): 10
HORBW plant response ([1]; Rate 62): 15
HORBW plant response ([1]; Rate 125): 15
ALOMY plant response ([2]; Rate 31): 5
ALOMY plant response ([2]; Rate 62): 10
ALOMY plant response ([2]; Rate 125): 30
PHAMI plant response ([3]; Rate 31): 15
PHAMI plant response ([3]; Rate 62): 20
PHAMI plant response ([3]; Rate 125): 60
LOLMU plant response ([4]; Rate 31): 10
LOLMU plant response ([4]; Rate 62): 10
LOLMU plant response ([4]; Rate 125): 15
CHEAL plant response ([5]; Rate 31): 85
CHEAL plant response ([5]; Rate 62): 80
CHEAL plant response ([5]; Rate 125): 90
AMARI plant response ([6]; Rate 31): 80
AMARI plant response ([6]; Rate 62): 90
AMARI plant response ([6]; Rate 125): 95
STEME plant response ([7]; Rate 31): 50
STEME plant response ([7]; Rate 62): 70
STEME plant response ([7]; Rate 125): 80
POLCO plant response ([8]; Rate 31): 30
POLCO plant response ([8]; Rate 62): 25
POLCO plant response ([8]; Rate 125): 70
LAMAM plant response ([9]; Rate 31): 60
LAMAM plant response ([9]; Rate 62): 70
LAMAM plant response ([9]; Rate 125): 80
RAPRA plant response ([10]; Rate 31): 60
RAPRA plant response ([10]; Rate 62): 85
RAPRA plant response ([10]; Rate 125): 90
MATIN plant response ([11]; Rate 31): 0
MATIN plant response ([11]; Rate 62): 5
MATIN plant response ([11]; Rate 125): 10

Cc1nn(-c2ccc(C(F)(F)F)cc2)nc1Cc1ccnc(C(F)(F)F)c1 [Compound 47, 4-[[5-methyl-2-[4-(trifluoromethyl)phenyl]-2H-1,2,3-triazol-4-yl]methyl]-2-(trifluoromethyl)pyridine]
Plant response rating: Beggarticks ([12]; 250 g ai/ha): 50
Plant response rating: Beggarticks ([12]; 16 g ai/ha): 30
Plant response rating: Beggarticks ([12]; 31 g ai/ha): 30
Plant response rating: Beggarticks ([12]; 62 g ai/ha): 40
Plant response rating: Beggarticks ([12]; 125 g ai/ha): 50
